The text below walks through data of publication PMC11729550, “Discovery of indole analogue Tc3 as a potent pyroptosis inducer and identification of its combination strategy against hepatic carcinoma” (Theranostics, 2025).

In the data set the test system is Hepa1-6 CDXs. Nature of the data set: Anti-PD-1 antibody synergistic effect in vivo. The settings on record: C57 BL/6N mice. From the text: Balb/c nude mice (female, 6-week-old) were subcutaneously injected with 2 × 10^6 HepG2 cells on the left and right flanks to construct cell-derived xenografts (CDXs). The patient-derived xenografts (PDXs) samples were gifts from Dr Changliang Shan of Nankai University. C57 BL/6N mice (female, 5-week-old) were subcutaneously injected with 2 × 10^6 Hepa1-6 cells mixed with matrigel (ABW, 0827265) on the left and right flanks. The mice were inoculated with hepatic carcinoma CDXs or PDXs for at least four days, and treated (i.p.) by vehicle and Tc3. […] Tumor volume = 4π/3 × (Length/2) × (Width/2)^2. All animal experiments were carried out in accordance with the recommendations of Requirements of the Ethical Review System of Biomedical Research Involving Human by National Health and Family Planning Commission of China and Nankai University Ethics Committee with written informed consent complying with the Declaration of Helsinki (IAEC ID: 2023-STDWLL-000249).
The CDI value of tumor weight was calculated using formula mentioned before.

For the molecule `CC(C)[C@H](N)C(=O)NCCCn1cc(/C=C2\S/C(=N\c3ccc(N4CCOCC4)cc3)N(Cc3ccc(F)cc3)C2=O)c2ccccc21` [Tc3], the “damage to liver, spleen, kidney and small intestine (pathology)” value (10 mg/kg) is “did not cause significant damage”. In addition, the “tumor growth of Hepa1-6 CDXs compared to control groups” value (i.p., Tc3 10 mg/kg, anti-PD-1 10 mg/kg) is given as “significantly inhibited tumor growth”.
